# Activity calls are given as the source filed them. No cut-off for these calls is given here.
# Assays:
# [1] = molecular target: T1, 5'-AMP-activated protein kinase subunit beta-1 (Homo sapiens) (UniProt Q9Y478); experiment: Binding affinity to HiBiT-tagged PRKAB1 (unknown origin) assessed as shift in melting/aggregation temperature by luminescence based BiTSA assay
# T1 sequence (whole entry): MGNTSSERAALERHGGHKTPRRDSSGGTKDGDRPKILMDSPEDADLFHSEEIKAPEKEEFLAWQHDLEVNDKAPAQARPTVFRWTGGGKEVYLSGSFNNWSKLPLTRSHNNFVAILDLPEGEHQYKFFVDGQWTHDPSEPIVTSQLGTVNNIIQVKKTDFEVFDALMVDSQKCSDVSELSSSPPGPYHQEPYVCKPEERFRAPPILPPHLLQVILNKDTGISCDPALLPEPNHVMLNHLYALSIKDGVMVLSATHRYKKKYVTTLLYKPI
# [2] = test system: Cellular tumor antigen p53 (Homo sapiens), P04637 [R273H]; experiment: Binding affinity to HiBiT-tagged p53 R273H mutant in human MDA-MB-468 cells assessed as p53 refolding by measuring change in melting temperature at 25 to 100 uM by luminescence based BiTSA assay; type: cell-based; details: dose 25-100 µM
# [3] = test system: Cellular tumor antigen p53 (Homo sapiens), P04637 [R273H]; experiment: Binding affinity to HiBiT-tagged p53 R273H mutant in human MDA-MB-468 cells assessed as p53 refolding by measuring change in melting temperature at 2.5 to 10 uM by luminescence based BiTSA assay; type: cell-based; details: dose 2.5-10 µM
# [4] = test system: GTPase KRas (Homo sapiens), P01116 [G12C]; experiment: Binding affinity to KRAS G12C mutant (unknown origin) by traditional Western blot CETSA analysis
# Sequence of GTPase KRas (Homo sapiens), P01116 [G12C] (P01116 whole entry G12C): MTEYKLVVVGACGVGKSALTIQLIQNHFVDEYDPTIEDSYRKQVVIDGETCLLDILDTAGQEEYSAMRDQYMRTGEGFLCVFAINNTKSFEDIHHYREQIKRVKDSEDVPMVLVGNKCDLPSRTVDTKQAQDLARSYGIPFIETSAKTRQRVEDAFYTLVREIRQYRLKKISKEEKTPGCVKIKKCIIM
# [5] = test system: GTPase KRas (Homo sapiens), P01116 [G12C]; experiment: Binding affinity to HiBiT-tagged KRAS G12C mutant in human NCI-H358 cells assessed as stabilization by measuring luminescence signal by BiTSA-ITDR assay; type: cell-based
# [6] = molecular target: Mitogen-activated protein kinase 14 (Homo sapiens) (UniProt Q16539); experiment: Binding affinity to HiBiT-tagged MAPK14 (unknown origin) assessed as shift in melting/aggregation temperature at 10 uM by luminescence based BiTSA assay
# Sequence of Mitogen-activated protein kinase 14 (Homo sapiens) (Q16539 whole entry): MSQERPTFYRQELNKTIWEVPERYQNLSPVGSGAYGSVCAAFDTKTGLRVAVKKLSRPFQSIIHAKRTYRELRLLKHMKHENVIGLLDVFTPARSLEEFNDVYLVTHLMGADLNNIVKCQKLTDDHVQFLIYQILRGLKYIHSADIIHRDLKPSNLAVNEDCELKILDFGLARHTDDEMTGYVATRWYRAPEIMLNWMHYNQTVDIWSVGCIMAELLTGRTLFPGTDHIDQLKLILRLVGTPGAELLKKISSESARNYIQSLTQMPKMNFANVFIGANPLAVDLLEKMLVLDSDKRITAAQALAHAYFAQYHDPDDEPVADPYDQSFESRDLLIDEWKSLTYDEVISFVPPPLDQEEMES
smiles,measurement,setting,value
O[C@@H]1CO[C@H]2[C@@H]1OC[C@H]2Oc1nc2nc(-c3ccc(-c4ccccc4)cc3)c(Cl)cc2[nH]1,Activity,[1],inactive
COCC1(CO)C(=O)C2CCN1CC2 (stereo unspecified),Activity,[2],inactive
CN(C)CCCNc1nc(CN2CCN(C(c3ccc(Cl)cc3)c3ccc(Cl)cc3)CC2)nc2ccccc12,Activity,[3],inactive
C=CC(=O)N1CCN(c2ncnc3c(F)c(-c4c(O)cccc4F)c(Cl)cc23)CC1,Activity,[4],Active
same,Activity,[5],inactive
Cn1c(NC[C@@H](N)Cc2ccccc2)nc(-c2ccncc2)c(-c2ccc3ccccc3c2)c1=O,Tm,[6],12.4 °C

# Reference: ChEMBL document CHEMBL4825748, “Rapid Evaluation of Small Molecule Cellular Target Engagement with a Luminescent Thermal Shift Assay” (ACS Med Chem Lett, 2021)
